Test results as given in US20030153030A1, “Enzyme-catalyzed modification of substances in biological mixtures” (priority 1999, published 2003).

Tests used:
MSCP5 cells = experiment: Prostaglandin synthesis/release in 14C-arachidonic acid-marked skin keratinocytes; assay type: cell-based, Murine; settings: NS398 10 μM, positive control, 2 hours incubation
Experimental: FIG. 1 is a schematic illustration of the effects of salicin and salicin esters on the release of prostaglandin in keratinocytes. The average value of three measuring points is shown. In FIG. 1, 1=negative control, 2=salicin, 3=phenyl propionyl salicin, 4=p-OH-phenyl acetyl salicin and 5=positive control.
Murine (MSCP5) and human (HPKII) skin keratinocytes were marked for 16 hours with 0.2 μCi ^14C-arachidonic acid/ml medium. Salicin, phenylpropionyl salicin and p-OH-phenylacetyl salicin in fresh medium were added in increasing concentrations as test substances and incubated for 2 hours. In the positive control NS398 (10 μM) for MSCP5 cells, prostaglandin synthesis is reduced by 85%. The prostaglandins were identified by comparison with reference substances and quantified by radiodensitometry. MSCP5: 100%=201 cpm; HPKII: 100%=63 cpm.

[1] = Activity of salicin derivative as opposed to salicin; settings: modified versus unmodified salicin

SMILES | prostaglandin synthesis is reduced by (MSCP5 cells) | improvement of activity as opposed to salicin [1]
CS(=O)(=O)Nc1ccc([N+](=O)[O-])cc1OC1CCCCC1 [NS398] | 85% | 
O=C(Cc1ccc(O)cc1)OCC1OC(Oc2ccccc2CO)C(O)C(O)C1O (centres unmarked) [p-OH-phenyl acetoyl salicin, p-OH-phenylacetyl salicin] |  | improvements are also shown
